Values joined by “and” are separate entries in the source; they are usually repeats but may differ in a detail not shown here. Identical values can stand only once.
How the values were obtained:
[1] = test system: A549 cells; assay: MTT detection method, inhibitory effect against A549 cells; format: cell-based
Description: (§1) MTT detection method was used, and MTT is a yellow compound and a dye accepting hydrogen ions, and can be used as the respiratory chain in mitochondria of viable cells. Under the action of succinate dehydrogenase and cytochrome C, the tetrazolium ring broke to form blue formanzan crystal, and the formation amount of formanzan crystal was only directly proportional to the viable counts. The formanzan crystal formed by reduction can dissolve in dimethyl sulfoxide (DMSO), and the optical density (OD) value can be determined at 490 nm using ELISA, to reflect the viable counts.
(§2) • Lung cancer cell lines: A549 and H1299. • Experimental materials: lung cancer cell lines, instruments and tools for cell culture, MTT, the compound mother liquid (10 mmol/L), and the positive control drug Src inhibitor pp1. 1. Specific Method • (3-1) Cell lines A549 and H1299 were recovered, and when the cells were in good conditions, namely cells grew to about 80% after one passage (i.e. the logarithmic growth phase), the cells were planked (96-well plate). • (3-2) Firstly, cells were collected, and the concentration of cell suspension was adjusted with counting chamber. Cells were seeded in 96-well plate at 1000˜10000 cells/well, and the detailed cell numbers in each well were dependent on the growth rate of different cells and the action time of drugs. A549 cells were seeded at 5000 cells, while H1299 cells were also seeded at 5000 cells, 200 μl for each well (100 μl cell suspension+100 μl drug dilution at different concentration gradient). The edge wells (36) were added 200 μl culture media (for prevention of edge effect). • (3-3) After planking and adding drugs, the plate was treated at 24 h, 48 h, and 72 h, and then for coloration, each well was added 200 μl culture media containing 20 μl MTT solution (5 mg/mL). The plate was continually cultured for 1˜4 hours, the incubation was stopped, and the culture supernatant fluid in each well was carefully absorbed. For suspension cells, the culture supernatant fluid in each well need be centrifuged before drawing. 150 μl DMSO was added to each well, and the plate was shaken on a shaking table for 15˜20 min, to allow the crystals to be completely dissolved. • (3-4) Colorimetry: The colorimetry was performed by ELISA, and the optical absorption value of each well was tested at a wavelength of 490 nm or 570 nm, and the result was recorded. • (3-5) Calculation Inhibition ratio=(the control−the drug)/the control×100% • IC50 (50% inhibitory concentration) can be calculated by spass software based on the inhibitory ratio at different concentration. II. Experimental Results • A549 cells were treated at 4 h, 24 h, 48 h, 72 h, and the drug dose was divided into the light concentration group (10 μm, 25 μm, 40 μm) and the high concentration group (50 μm, 80 μm, 100 μm), that were seeded at 6000 cells/well and 5000 cells/well, respectively, to carry out the experiment.

[2] = test system: H1299 cells; assay: MTT detection method, inhibitory effect against H1299 cells; format: cell-based
Description: as §1, §2
H1299 cells were seeded at 5000 cells/well, and after treatment for 4 h, 24 h, 48 h, and 72 h, the results were shown in Tables 5-9 and FIGS. 5-8: […]

For CC(C)(C)n1nc(-c2ccc(OCCOCCOCCOCCO)cc2)c2c(N)ncnc21 [Compound 5, 2-(2-(2-(2-(4-(4-amino-1-tert-butyl-1H-pyrazolo[3,4-d]pyrimidin-3-)phenoxy)ethoxy)ethoxy)ethoxy)ethanol], the “The inhibitory ratio (%) for three parallel assays” value (“The inhibitory ratio (%)” below) ([1]; 4 h, 10 μm) was 26.88% and 26.25% and 28.75%, the “The mean inhibitory ratio (%)” value ([1]; 4 h, 10 μm) was 27.29% and the “The mean inhibitory ratio (%)” value ([1]; 4 h, 25 μm) was 21.77%. For the same compound, the “The inhibitory ratio (%)” value ([1]; 4 h, 40 μm) was 23.44% and 20.94% and 18.13%, the “The mean inhibitory ratio (%)” value ([1]; 4 h, 40 μm) was 20.83% and the “The inhibitory ratio (%)” value ([1]; 4 h, 50 μm) was 16.57% and 11.14% and 14.57%. The “The mean inhibitory ratio (%)” value ([1]; 4 h, 50 μm) was 14.10%, the “The inhibitory ratio (%)” value ([1]; 4 h, 80 μm) was 20.86% and 20.29% and 14.57% and the “The mean inhibitory ratio (%)” value ([1]; 4 h, 80 μm) was 18.57%. For the same compound, the “The inhibitory ratio (%)” value ([1]; 4 h, 100 μm) was 24.00% and 20.86% and 22.57%, the “The mean inhibitory ratio (%)” value ([1]; 4 h, 100 μm) was 22.48% and the “The inhibitory ratio (%)” value ([1]; 24 h, 10 μm) was 14.35% and 15.65% and 13.26%. For the same compound, the “The mean inhibitory ratio (%)” value ([1]; 24 h, 10 μm) was 14.42%, the “The inhibitory ratio (%)” value ([1]; 24 h, 25 μm) was 22.39% and 13.70% and 14.78% and the “The mean inhibitory ratio (%)” value ([1]; 24 h, 25 μm) was 16.96%. The “The inhibitory ratio (%)” value ([1]; 24 h, 40 μm) was 26.30% and 16.52% and 14.13%, the “The mean inhibitory ratio (%)” value ([1]; 24 h, 40 μm) was 18.99% and the “The inhibitory ratio (%)” value ([1]; 24 h, 50 μm) was 17.08% and 18.33% and 17.92%. The “The mean inhibitory ratio (%)” value ([1]; 24 h, 50 μm) was 17.78%, the “The inhibitory ratio (%)” value ([1]; 24 h, 80 μm) was 22.50% and 20.83% and 20.21% and the “The mean inhibitory ratio (%)” value ([1]; 24 h, 80 μm) was 21.18%. The “The inhibitory ratio (%)” value ([1]; 24 h, 100 μm) was 27.92% and 27.50%, the “The mean inhibitory ratio (%)” value ([1]; 24 h, 100 μm) was 27.78% and the “The mean inhibitory ratio (%)” value ([1]; 48 h, 10 μm) was 9.64%. For the same compound, the “The inhibitory ratio (%)” value ([1]; 48 h, 25 μm) was 14.84% and 14.22% and 13.91%, the “The mean inhibitory ratio (%)” value ([1]; 48 h, 25 μm) was 14.32% and the “The inhibitory ratio (%)” value ([1]; 48 h, 40 μm) was 19.22% and 26.72% and 20.63%. The “The mean inhibitory ratio (%)” value ([1]; 48 h, 40 μm) was 22.19%, the “The inhibitory ratio (%)” value ([1]; 48 h, 50 μm) was 15.33% and 13.33% and 12.83% and the “The mean inhibitory ratio (%)” value ([1]; 48 h, 50 μm) was 13.83%. The “The inhibitory ratio (%)” value ([1]; 48 h, 80 μm) was 15.33% and 19.67% and 18.00%, the “The mean inhibitory ratio (%)” value ([1]; 48 h, 80 μm) was 17.67% and the “The inhibitory ratio (%)” value ([1]; 48 h, 100 μm) was 30.50% and 31.33% and 31.67%. For the same compound, the “The mean inhibitory ratio (%)” value ([1]; 48 h, 100 μm) was 31.17%, the “The inhibitory ratio (%)” value ([1]; 72 h, 10 μm) was 9.82% and 8.11% and 15.05% and the “The mean inhibitory ratio (%)” value ([1]; 72 h, 10 μm) was 10.99%. For the same compound, the “The inhibitory ratio (%)” value ([1]; 72 h, 25 μm) was 35.41% and 32.43% and 39.37%, the “The mean inhibitory ratio (%)” value ([1]; 72 h, 25 μm) was 35.74% and the “The inhibitory ratio (%)” value ([1]; 72 h, 40 μm) was 50.18% and 45.68% and 50.45%. For the same compound, the “The mean inhibitory ratio (%)” value ([1]; 72 h, 40 μm) was 48.77%, the “The inhibitory ratio (%)” value ([1]; 72 h, 50 μm) was 20.27% and 17.70% and 22.30% and the “The mean inhibitory ratio (%)” value ([1]; 72 h, 50 μm) was 20.09%. The “The inhibitory ratio (%)” value ([1]; 72 h, 80 μm) was 29.59% and 28.51% and 30.14%, the “The mean inhibitory ratio (%)” value ([1]; 72 h, 80 μm) was 29.41% and the “The inhibitory ratio (%)” value ([1]; 72 h, 100 μm) was 53.11% and 52.70% and 54.05%. The “The mean inhibitory ratio (%)” value ([1]; 72 h, 100 μm) was 53.29%, the “The inhibitory ratio (%)” value ([2]; 4 h, 10 μm) was 4% and 6% and the “The mean inhibitory ratio (%)” value ([2]; 4 h, 10 μm) was 4%. For the same compound, the “The inhibitory ratio (%)” value ([2]; 4 h, 25 μm) was 6% and 7%, the “The mean inhibitory ratio (%)” value ([2]; 4 h, 25 μm) was 7% and the “The inhibitory ratio (%)” value ([2]; 4 h, 40 μm) was 7% and 8%. The “The mean inhibitory ratio (%)” value ([2]; 4 h, 40 μm) was 8%, the “The inhibitory ratio (%)” value ([2]; 4 h, 50 μm) was 13% and 9% and the “The mean inhibitory ratio (%)” value ([2]; 4 h, 50 μm) was 10%. For the same compound, the “The inhibitory ratio (%)” value ([2]; 4 h, 80 μm) was 12% and 13%, the “The mean inhibitory ratio (%)” value ([2]; 4 h, 80 μm) was 12% and the “The inhibitory ratio (%)” value ([2]; 4 h, 100 μm) was 13% and 15% and 14%. The “The mean inhibitory ratio (%)” value ([2]; 4 h, 100 μm) was 14%, the “The inhibitory ratio (%)” value ([2]; 24 h, 10 μm) was 10% and 8% and 13% and the “The mean inhibitory ratio (%)” value ([2]; 24 h, 10 μm) was 11%. For the same compound, the “The inhibitory ratio (%)” value ([2]; 24 h, 25 μm) was 14% and 13%, the “The mean inhibitory ratio (%)” value ([2]; 24 h, 25 μm) was 14% and the “The inhibitory ratio (%)” value ([2]; 24 h, 40 μm) was 11% and 13% and 14%. For the same compound, the “The mean inhibitory ratio (%)” value ([2]; 24 h, 40 μm) was 13%, the “The inhibitory ratio (%)” value ([2]; 24 h, 50 μm) was 20% and 25% and 26% and the “The mean inhibitory ratio (%)” value ([2]; 24 h, 50 μm) was 24%. For the same compound, the “The inhibitory ratio (%)” value ([2]; 24 h, 80 μm) was 28% and 26% and 24%, the “The mean inhibitory ratio (%)” value ([2]; 24 h, 80 μm) was 26% and the “The inhibitory ratio (%)” value ([2]; 24 h, 100 μm) was 29% and 31% and 26%. The “The mean inhibitory ratio (%)” value ([2]; 24 h, 100 μm) was 28%, the “The inhibitory ratio (%)” value ([2]; 48 h, 10 μm) was 4% and 5% and 6% and the “The mean inhibitory ratio (%)” value ([2]; 48 h, 10 μm) was 5%. For the same compound, the “The inhibitory ratio (%)” value ([2]; 48 h, 25 μm) was 15% and 18% and 14%, the “The mean inhibitory ratio (%)” value ([2]; 48 h, 25 μm) was 16% and the “The inhibitory ratio (%)” value ([2]; 48 h, 40 μm) was 22% and 25%. The “The mean inhibitory ratio (%)” value ([2]; 48 h, 40 μm) was 23%, the “The inhibitory ratio (%)” value ([2]; 48 h, 50 μm) was 24% and 26% and the “The mean inhibitory ratio (%)” value ([2]; 48 h, 50 μm) was 25%. The “The inhibitory ratio (%)” value ([2]; 48 h, 80 μm) was 36% and 38%, the “The mean inhibitory ratio (%)” value ([2]; 48 h, 80 μm) was 37% and the “The inhibitory ratio (%)” value ([2]; 48 h, 100 μm) was 42% and 41%. The “The mean inhibitory ratio (%)” value ([2]; 48 h, 100 μm) was 41%, the “The inhibitory ratio (%)” value ([2]; 72 h, 10 μm) was 8% and 5% and 2% and the “The mean inhibitory ratio (%)” value ([2]; 72 h, 10 μm) was 5%. The “The inhibitory ratio (%)” value ([2]; 72 h, 25 μm) was 7% and 4% and 3%, the “The mean inhibitory ratio (%)” value ([2]; 72 h, 25 μm) was 5% and the “The inhibitory ratio (%)” value ([2]; 72 h, 40 μm) was 18% and 21% and 23%. For the same compound, the “The mean inhibitory ratio (%)” value ([2]; 72 h, 40 μm) was 20%, the “The inhibitory ratio (%)” value ([2]; 72 h, 50 μm) was 26% and 23% and the “The mean inhibitory ratio (%)” value ([2]; 72 h, 50 μm) was 24%. For the same compound, the “The inhibitory ratio (%)” value ([2]; 72 h, 80 μm) was 37% and 36% and 38%, the “The mean inhibitory ratio (%)” value ([2]; 72 h, 80 μm) was 37% and the “The inhibitory ratio (%)” value ([2]; 72 h, 100 μm) was 45% and 41% and 39%. The “The mean inhibitory ratio (%)” value ([2]; 72 h, 100 μm) was 42%.
